Test results as given in BindingDB's records for patent US12534451 (St. Jude Children''s Research Hospital, Inc., 2026).

Target: Pantothenate kinase 3 (Homo sapiens, UniProt Q9H999)
Experiment: PANK Activity Assay
Experimental: All the experiments were repeated twice in duplicate and the data were an average ±data range. […] The experiments mimicking the mixture of ligands present in vivo were performed under different conditions.

Pantothenate kinase 3, sequence (Q9H999 whole entry): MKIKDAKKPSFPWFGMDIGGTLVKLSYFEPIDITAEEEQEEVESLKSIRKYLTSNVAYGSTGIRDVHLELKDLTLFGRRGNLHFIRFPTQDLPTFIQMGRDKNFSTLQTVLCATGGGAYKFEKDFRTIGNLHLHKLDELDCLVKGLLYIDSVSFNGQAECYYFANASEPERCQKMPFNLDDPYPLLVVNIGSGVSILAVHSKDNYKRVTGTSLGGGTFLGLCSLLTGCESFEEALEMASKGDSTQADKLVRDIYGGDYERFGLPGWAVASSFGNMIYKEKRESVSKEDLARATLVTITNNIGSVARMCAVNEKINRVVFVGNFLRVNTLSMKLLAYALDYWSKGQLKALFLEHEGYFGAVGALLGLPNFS

`O=C(Cc1ccc(C2CC2)c(F)c1)N1CCN(c2nc3ncc(F)cc3o2)CC1` [US12534451, Compound PZ-4351] showed an IC50 of 1.23 nM.
